Assay results published in patent US10308641B2, “Crystal form of 3-(6-(1-(2,2-difluorobenzo[d][1,3]dioxole-5-yl)cyclopropane formamido)-3-methylpyridine-2-yl)benzoic acid and preparation method thereof” (CRYSTAL PHARMATECH CO., LTD., priority 2015, dated 2019).
Converted amounts (≈) assume the structure as drawn.

Columns and labels:
Format in all cases: physicochemical
[1] = Solubility comparison, saturated solutions in SGF, FeSSIF, FaSSIF and water, by HPLC; details: FaSSIF, FeSSIF and H2O after 1 hour, 2 hours and 24 hours
[2] = Hygroscopicity assessment by dynamic vapor sorption (DVS); details: for Weight Gain under 80% Relative Humidity: DVS
Experimental: Dynamic vapor sorption (DVS) data in the present disclosure was acquired by a SMS (Surface Measurement Systems Ltd.) DVS Intrinsic. About 10 mg of crystalline Form A of present disclosure was used for DVS test. The parameters of the dynamic vapor sorption (DVS) method of the present disclosure were as follows:
Gas and flow rate: N2, 200 mL/min
RH range: 0% RH to 95% RH
Maximum equilibrate time: 180 min
Humidity gradient: 10% (0% RH-90% RH), 5% (90% RH-95% RH).
About 12.2 mg of crystalline Form A of the present disclosure was used for hygroscopicity testing using dynamic vapor sorption (DVS), crystalline Form A underwent a 0-95%-0 cycle of the relative humidity (RH) change. 4. The XRPD patterns of crystalline Form A before and after hygroscopicity assessment are depicted in FIG. 6. The pattern above is before DVS and the below one is after DVS.
About hygroscopicity characterization description and definition of hygroscopicity (Chinese Pharmacopoeia 2010 edition appendix XIV Drug hygroscopic test guidelines, test at 25° C.+/−1° C., 80% Relative Humidity) • deliquescent: sufficient water is absorbed to form a liquid. • very hygroscopic: increase in mass is equal to or greater than 15%. • hygroscopic: increase in mass is less than 15% and equal to or greater than 2%. • slightly hygroscopic: increase in mass is less than 2% and equal to or greater than 0.2%. • no or almost no hygroscopic: increase in mass is less than 0.2%.

[3] = Stability assessment on storage (XRPD and purity)
Experimental: The crystalline Form A of the compound of formula (I) of the present disclosure was stored under 25° C./60% RH and 40° C./75% RH for 90 days. XRPD and purity of the samples were collected after storing for 15 days, 30 days and 90 days. […] The XRPD results of crystalline Form A before and after storing under 25° C./60% RH and 40° C./75% RH for 90 days are depicted in FIG. 7 (FIG. 7: the top, middle and bottom are initial crystalline Form A, crystalline Form A after storing at 25° C./60% RH and 40° C./75% RH for 90 days respectively).

[4] = Solubility comparison, saturated solutions in SGF, FeSSIF, FaSSIF and water, by HPLC; details: for Solubility FeSSIF: pH5.0 FeSSIF; for Solubility FaSSIF: pH6.5 FaSSIF
Experimental: Crystalline Form A of the present disclosure and Form I disclosed in CN101910156A are prepared into saturated solution in SGF (Simulated gastric fluids), pH5.0 FeSSIF (Fed state simulated intestinal fluids), pH6.5 FaSSIF (Fasted state simulated intestinal fluids) and water. Concentrations in the saturation solutions were tested after 1 hour, 4 hours and 24 hours by HPLC.

Solubility H2O ([4]; H2O, 1 hour) [µg/mL]	Solubility H2O ([4]; H2O, 4 hours) [µg/mL]	Solubility SGF ([4]; 1 hour) [µg/mL]	Solubility SGF ([4]; 4 hours) [µg/mL]	Solubility SGF ([4]; 24 hours) [µg/mL]	Solubility FeSSIF ([4]; 1 hour) [µg/mL]	Solubility FeSSIF ([4]; 4 hours) [µg/mL]	Solubility FeSSIF ([4]; 24 hours) [µg/mL]	Solubility FaSSIF ([4]; 1 hour) [µg/mL]	Solubility FaSSIF ([4]; 4 hours) [µg/mL]	Solubility FaSSIF ([4]; 24 hours) [µg/mL]	Structure (SMILES)	also measured
8.6 (≈ 19 µM)	16 (≈ 35.4 µM)	0.9 (≈ 1.99 µM)	1.9 (≈ 4.2 µM)	2 (≈ 4.42 µM)	17 (≈ 37.6 µM)	18 (≈ 39.8 µM)	20 (≈ 44.2 µM)	8.2 (≈ 18.1 µM)	11 (≈ 24.3 µM)	9.5 (≈ 21 µM)	Cc1ccc(NC(=O)C2(c3ccc4c(c3)OC(F)(F)O4)CC2)nc1-c1cccc(C(=O)O)c1 [Form A, 3-(6-(1-(2,2-difluorobenzo [d] [1,3]dioxol-5-yl)cyclopropanecarboxamido)-3-methylpyridin-2-yl) benzoic acid]	Solubility compared with Form I disclosed in CN101910156A [1]: higher; Crystalline form after DVS test (XRPD before and after) ([2]; 0-95%-0 RH cycle): didn't change; Hygroscopicity class ([2]; Chinese Pharmacopoeia 2010 criteria, 25° C., 80% RH): non-hygroscopic or almost non-hygroscopic; Weight Gain under 80% Relative Humidity ([2]; 25° C., 80% RH, listed as Crystalline Form A of the compound of formula (I)): 0.10%; Weight Gain under 80% Relative Humidity ([2]; 25° C., 80% RH, listed as crystalline Form A of the compound of formula (I)): 0.10%; Stability (Purity %) 25° C./60% RH ([3]; 25° C./60% RH, 15 days): 99.94%; Stability (Purity %) 25° C./60% RH ([3]; 25° C./60% RH, 30 days): 99.90%; Stability (Purity %) 25° C./60% RH ([3]; 25° C./60% RH, 90 days): 99.93%; Stability under long-term stability condition ([3]; 25° C./60% RH, 90 days, XRPD and purity): stable; Stability (Purity %) 25° C./60% RH ([3]; 25° C./60% RH, Initial): 99.82%; Stability (Purity %) 40° C./75% RH ([3]; 40° C./75% RH, 15 days): 99.94%; Stability (Purity %) 40° C./75% RH ([3]; 40° C./75% RH, 30 days): 99.94%; Stability (Purity %) 40° C./75% RH ([3]; 40° C./75% RH, 90 days): 99.94%; Stability under accelerated stability condition ([3]; 40° C./75% RH, 90 days, XRPD and purity): stable; Stability (Purity %) 40° C./75% RH ([3]; 40° C./75% RH, Initial): 99.82%; solubility at 24 h ([4]; water, thermodynamic from solid, H2O, 24 hours): 25 µg/mL (≈ 55.3 µM)
2.2 (≈ 4.86 µM)	6.7 (≈ 14.8 µM)	0.4 (≈ 0.884 µM)	<0.22	<0.21	5.5 (≈ 12.2 µM)	5.9 (≈ 13 µM)	5.5 (≈ 12.2 µM)	2.3 (≈ 5.08 µM)	1.5 (≈ 3.32 µM)	0.9 (≈ 1.99 µM)	Cc1ccc(NC(=O)C2(c3ccc4c(c3)OC(F)(F)O4)CC2)nc1-c1cccc(C(=O)O)c1 [Form I, 3-(6-(1-(2,2-difluorobenzo [d] [1,3]dioxol-5-yl)cyclopropanecarboxamido)-3-methylpyridin-2-yl) benzoic acid, reference compound]	Solubility H2O ([4]; H2O, 24 hours): 16 µg/mL (≈ 35.4 µM)
